Assay results from patent US12194081B2, “ARGINASE1 polypeptides” (IO BIOTECH APS, priority 2018, dated 2025).

Tested on: PBMCs from cancer patients and healthy donors
Assay: in vitro IFNγ ELISPOT of PBMCs after 7 days with peptide and IL-2
Assay type: cell-based, human
Conditions: for cancer patients showing responses in IFNγ ELISPOT: out of 16 cancer patients (8 melanoma, 6 multiple myeloma, 1 breast cancer, 1 renal cell carcinoma); for cancer patients showing responses in IFNγ ELISPOT / healthy donors showing responses in IFNγ ELISPOT: strong responses counted for ArgLong2, FIG. 2; for healthy donors showing responses in IFNγ ELISPOT: out of 19 healthy donors; for responses in IFNγ ELISPOT (in words): PBMCs from 6 healthy donors, peptide and low dose IL-2 for 1 week, FIG. 1
Experimental: PBMCs from healthy donors were isolated using density gradient separation over LymphoprepTM (STEMCELL Technologies) and cryopreserved at -150° C. in FBS supplemented with 10% DMSO. PBMCs from cancer patients were isolated from blood sample a minimum of four weeks after the termination of any anti-cancer therapy. The protocol was approved by the Scientific Ethics Committee for The Capital Region of Denmark and conducted in accordance with the provisions of the Declaration of Helsinki. Written informed consent from the patients was obtained before study entry. […] The sequences of the peptides used in these experiments are shown in full below in alignment with each other, and are also set out in the section entitled “Sequences”). Peptides are described by SEQ ID NO, by name, or by reference to the start and end positions of each peptide sequence within the full length sequence of Arginase 1. Each may be used interchangeably. For example, the peptide of SEQ ID NO: 1 may alternatively be referred to by the name ArgLong2, or may alternatively be referred to as […]-206 (given a start position of 169 and end position of 206). The intended reference in each case will be clear from the context. For in vitro ELISPOT, PBMCs from cancer patients and healthy donors were pulsed with 20 μM of Arginase 1-derived peptides and 120 U/ml IL-2 in 24-well plates for 7 days before being used in an ELISPOT assay. The cells were placed in 96-well nitrocellulose ELISPOT plates (MultiScreen MAIP […]; Millipore) pre-coated with IFNγ capture antibody (Mabtech). Arginase peptides added to a final concentration of 5 μM and plates incubated at 37° C. for 14-16 hours. After the incubation the cells were washed off and secondary biotinylated Ab (Mabtech, cat. 3420-6-1000) was added for 2 hours at room temperature. Unbound secondary antibody was washed off and streptavidin conjugated alkaline phosphatase (AP) (Mabtech, cat. 3310-10) was added for 1 hour at room temperature. Unbound conjugated enzyme was washed off and the assay was developed by adding BCIP/NBT substrate (Mabtech, cat. 3650-10). Developed ELISPOT plates were analyzed on CTL ImmunoSpot S6 Ultimate-V analyzer using Immunospot software v5.1. Responses were reported as the difference between average numbers of spots in wells stimulated with Arginase 1 and wells without added peptide.

AKDIVYIGLRDVDPGEHYIL (Peptide fragment of human Arginase 1 (Arg1-18)) [Arg171-190, previously described 20-mer Arginase 1 peptide (WO2018065563), reference compound]
cancer patients showing responses in IFNγ ELISPOT: 3 cancer patients | healthy donors showing responses in IFNγ ELISPOT: 3 healthy donors

KTLGIKYFSMTEVDRLGIGK (Peptide fragment of human Arginase 1 (Arg1-20)) [Arg191-210, previously described 20-mer Arginase 1 peptide (WO2018065563), reference compound]
cancer patients showing responses in IFNγ ELISPOT: 3 cancer patients | healthy donors showing responses in IFNγ ELISPOT: 7 healthy donors

DVDPGEHYILKTLGIKYFSM (Peptide fragment of human Arginase 1 (Arg1-19)) [Arg181-200, previously described 20-mer Arginase 1 peptide (WO2018065563), reference compound]
cancer patients showing responses in IFNγ ELISPOT: 6 cancer patients | healthy donors showing responses in IFNγ ELISPOT: 4 healthy donors

ISAKDIVYIGLRDVDPGEHYILKTLGIKYFSM (Peptide fragment of human Arginase 1 (ArgLong3)) [32-mer, positions 169-200 of full length human Arginase 1]
responses in IFNγ ELISPOT (in words): low or no responses

ISAKDIVYIGLRDVDPGEHYILKTLGIKYFSMTEVDRLGIGK (Peptide fragment of human Arginase 1 (ArgLong)) [42-mer, positions 169-210 of full length human Arginase 1]
responses in IFNγ ELISPOT (in words): low or no responses
